≈ marks a conversion by molar mass, not a printed value.
Tests used:
MSSA ATCC 29213 = assay: MIC by CLSI broth micro-dilution, MSSA ATCC 29213; assay type: cell-based; details: Staphylococcus aureus, read-out: Minimum inhibitory concentration
Protocol: (§1) Aminoxy acids were synthesized by the standard peptide coupling procedures. Minimum inhibitory concentration was determined using CLSI broth micro-dilution method in 96-wells microtitre plates. Minimum inhibitory concentration is defined as the lowest concentration of the compound that inhibits visible growth of the bacteria. All experiments were performed three times. 24 compounds including aminoxy acid monomers and dipeptides have been identified to show toxicity against multidrug resistant Staphylococcus aureus Mu3 and summarized in Table 1. The minimum inhibitory concentration of compound 8 and compound 35 on other gram-positive bacteria was also evaluated and summarized in Table 2. […] As shown in FIGS. 3A-3B there are no observable hemolysis for compound 8 and compound 35 towards human red blood cell.
(§2) Bacteria were streaked from the glycerol stock into BHI agar and were incubated overnight. Single colony was picked for the overnight culture in cation-adjusted Mueller Hinton broth (CAMH), LB or BHI. The overnight culture was sub-cultured and regrew to exponential phase for the experiment.
(§3) MIC was determined by CLSI broth micro-dilution method in 96-wells microtitre plates. […] Optical density was recorded by DTX 880 multimode detector (Beckman Coulter, California, US). […]

[1] = system: L. monocytogenes clinical strain; assay: MIC by CLSI broth micro-dilution, L. monocytogenes; assay type: cell-based; details: Listeria monocytogenes, BHI medium, read-out: Minimum inhibitory concentration
Protocol: as §1, §2, §3

[2] = system: Staphylococcus aureus ATCC 29213 persister; assay: Killing of Staphylococcus aureus persister; assay type: cell-based; details: 10×MIC, persisters enriched with ciprofloxacin
From the text: FIG. 4 is a line graph showing the killing kinetics of the compound 8 and compound 35 towards Staphylococcus aureus persister compared to the conventional antibiotics. […] Data were representative of 3 independent experiments±S.D.
Persisters are the phenotypic variants of the normal bacteria with reduced metabolism. They highly tolerate to the conventional […]. Persisters was enriched by the addition of 100-fold minimum inhibitory concentration of bactericidal antibiotics ciprofloxacin to the stationary phase bacteria. After 24 hours' culture, ciprofloxacin was removed. Persisters were treated with compound 8, compound 35 or different conventional antibiotics.
S. aureus ATCC 29213 cells were sub-cultured from an overnight culture in CAMH 1:100 for 24 hours at 37° C. with 250 rpm shaking speed. Persisters were prepared by addition of ciprofloxacin hydrochloride (25 μg/mL, 100×MIC in Staphylococcus aureus ATCC 29213) and cultured for 24 hours at 37° C. with 250 rpm shaking speed. Persisters were washed by PBS (12,000×g, 3 minutes) and resuspended in PBS+1% CAMH medium (same volume as original culture). 1 mL portions were aliquoted into fresh culture tubes, and different antibiotics or DMSO (1% maximum concentration) were added, followed by incubation at 37° C. with 250 rpm shaking speed. […]

[3] = system: Staphylococcus aureus strain USA300-LAC; assay: Lethal bacteremia infection model, survival; assay type: in vivo, Balb/c mice; details: 10 mg/kg/day intraperitoneal, twice per day, 7 days
Protocol: FIG. 8 is a line graph showing compound 8 and compound 35 rescue mice from Staphylococcus aureus bacteremia infection model. Statistical analysis was performed with a log rank test (Mantel Cox test). (*p<0.05).
Staphylococcus aureus strain USA300-LAC were cultured to the early exponential phase of growth, washed twice with sterile phosphate-buffered saline solution (PBS), and resuspended in PBS at 3×10^7 CFU/200 μL for lethal bacteremia model. The female Balb/c mice, 6-8 weeks, were infected intravenously (i.v.) through the tail vein with Staphylococcus aureus and randomized into three groups (N=11 for vehicle; N=12 for compound 8 and compound 35 respectively). Six hour after infection, mice received intraperitoneal injections of compound 8 or compound 35 (10 mg/kg/day) or an injection of buffer (PBS with 2.5% DMSO and 2% Tween-80) as the control. The compound and injection buffer treatments were performed twice per day at 12-h intervals. The challenged mice were monitored for 7 days, at which point all the remaining mice were sacrificed. Statistical analysis was performed with a log rank test (Mantel Cox test). (*p<0.05).

NIH3T3 cells = assay: Mammalian cell cytotoxicity assay (MTT), NIH3T3; assay type: cell-based; details: for IC50: Mus musculus, NIH3T3, MTT assay, 24 hours, read-out: IC50, toxicity towards mammalian cells NIH3T3; for toxicity against mammalian cell NIH3T3: at 16 folded MIC (50 μM compound 8, 12.5 μM compound 35)
Protocol: NIH3T3 cells were cultured in DMEM supplemented with 10% fetal bovine serum (FBS), 100 U/ml penicillin and 0.1 mg/ml streptomycin. Cells were grown in treated culture flasks at 37° C. in a 5% CO2 humidified incubator and passaged every 2-3 days.
In the treated culture dish, cells were washed by PBS and then trypsinized. DMEM was added to quench the reaction. Cells were centrifuged and resuspended into fresh DMEM. Cells were then seeded in 96-well microtitre plate (100 μL, 5000 cells per well) for 24 hours before addition of compounds. The compounds were two-fold serial diluted by DMSO in a DMSO-compatible 96-well plate. 1 μL of compound in DMSO is transferred into the 96-well microtitre preparation plate containing 100 μL DMEM medium. The medium in culture plate was removed and compounds in preparation plate were transferred to culture plate. Equal volume of DMSO was used as negative control.
After 24 hours of incubation of cells, cell viability was measured by MTT assay. In MTT assay, 20 μL 5 mg/mL MTT solution in PBS was added to cell medium and cultured for 3 hours. The medium was then removed and 50 μL DMSO was added and cultured for 10 minutes. Absorbance at 595 nm was measured spectrophotometrically (Beckman Coulter DTX 880 Multimode Detector) and normalized to DMSO group. Biological replicates were performed.

MRSA-USA300 = assay: MIC by CLSI broth micro-dilution, MRSA-USA300; assay type: cell-based; details: Staphylococcus aureus, read-out: Minimum inhibitory concentration
Protocol: as §1, §2, §3

MSSA ATCC 35556 = assay: MIC by CLSI broth micro-dilution, MSSA ATCC 35556; assay type: cell-based; details: Staphylococcus aureus, read-out: Minimum inhibitory concentration
Protocol: as §1, §2, §3

Structure (SMILES) | MIC (MSSA ATCC 29213) | MIC [1] | bactericidal effect on Staphylococcus aureus persister [2] | rescue of mice from bacteremia infection (survival) [3] | IC50 (NIH3T3 cells) | toxicity against mammalian cell NIH3T3 (NIH3T3 cells) | MIC (MRSA-USA300) | MIC (MSSA ATCC 35556)
CC(C)C[C@H](ONC(=O)[C@@H](COCc1ccccc1)ONC(=O)c1cc(C(F)(F)F)cc(C(F)(F)F)c1)C(=O)Nc1ccccc1 [Compound 8] | 3.13 µM (≈ 2.05 µg/mL) | 6.25 µM (≈ 4.1 µg/mL) | can eradicate the Staphylococcus aureus persister | can rescue mice | > 50 µM | minimal toxicity | 3.13 µM (≈ 2.05 µg/mL) | 3.13 µM (≈ 2.05 µg/mL)
CC(C)C[C@H](ONC(=O)[C@@H](COCc1ccccc1)ONC(=O)c1cc(C(F)(F)F)cc(C(F)(F)F)c1)C(=O)Nc1ccc2c(c1)OC(F)(F)O2 [Compound 35] | 1.56 µM (≈ 1.15 µg/mL) | 0.78 µM (≈ 0.574 µg/mL) | can eradicate the Staphylococcus aureus persister | can rescue mice | > 50 µM | minimal toxicity | 3.13 µM (≈ 2.3 µg/mL) | 0.78 µM (≈ 0.574 µg/mL)

Source: patent US20240315992A1, “AMINOXY ACID-BASED ANTIBACTERIAL COMPOUNDS AND METHODS THEREOF” (The University of Hong Kong, priority 2023, published 2024)
